By IC50 is commonly meant the midpoint of a concentration-inhibition curve. A high value points to lower potency. The Ki is the equilibrium dissociation constant of an inhibitor or competing ligand from its target. A high value points to lower affinity.

The values below come from patent US7271181B2, “Inhibitors of p38” (Vertex Pharmaceuticals Incorporated, priority 2001, dated 2007).

A value given as a limit tells only on which side of the number the result lay.

For the first assay, the target named is T1, activated p38 (Homo sapiens, UniProt Q16539).
T1 construct: amplify the coding region of CSBP2 cDNA using a HeLa cell library; made in house; host or cells: Trichoplusia ni (Tn-368) High-Five insect cells, baculovirus (virus generated in Sf9)
T1 sequence (Q16539 whole entry): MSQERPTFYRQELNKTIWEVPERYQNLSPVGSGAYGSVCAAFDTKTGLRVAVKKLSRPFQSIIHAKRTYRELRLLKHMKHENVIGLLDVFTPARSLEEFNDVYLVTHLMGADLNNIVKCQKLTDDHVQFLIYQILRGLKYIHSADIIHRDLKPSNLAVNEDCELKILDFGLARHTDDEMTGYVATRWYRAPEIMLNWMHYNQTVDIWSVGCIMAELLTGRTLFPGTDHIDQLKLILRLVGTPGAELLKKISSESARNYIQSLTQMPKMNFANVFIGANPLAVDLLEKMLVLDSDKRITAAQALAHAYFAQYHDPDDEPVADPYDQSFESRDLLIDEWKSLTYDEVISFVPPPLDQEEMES
The experiment in a line: p38 inhibition assay: inhibition of phosphorylation of EGF receptor peptide. The format is biochemical. Particulars: activated p38 5 nM, EGF receptor peptide 200 μM, ATP 100 μM, 30° C, 30 minutes. The procedure: A. Inhibition of Phosphorylation of EGF Receptor Peptide
This assay was carried out in the presence of 10 mM MgCl2, 25 mM β-glycerophosphate, 10% glycerol and 100 mM HEPES buffer at pH 7.6. For a typical IC50 determination, a stock solution was prepared containing all of the above components and activated p38 (5 nM). The stock solution was aliquotted into vials. A fixed volume of DMSO or inhibitor in DMSO (final concentration of DMSO in reaction was 5%) was introduced to each vial, mixed and incubated for 15 minutes at room temperature. EGF receptor peptide, […], a phosphoryl acceptor in p38-catalyzed kinase reaction (1), was added to each vial to a final concentration of 200 μM. The kinase reaction was initiated with ATP (100 μM) and the vials were incubated at 30° C. After 30 minutes, the reactions were quenched with equal volume of 10% trifluoroacetic acid (TFA).
The phosphorylated peptide was quantified by HPLC analysis. Separation of phosphorylated peptide from the unphosphorylated peptide was achieved on a reverse phase column (Deltapak, 5 μm, C18 100D, Part no. 011795) with a binary gradient of water and acteonitrile, each containing 0.1% TFA. IC50 (concentration of inhibitor yielding 50% inhibition) was determined by plotting the percent (%) activity remaining against inhibitor concentration.
On to `COc1ccc(C(=O)c2ccc(Nc3c(F)cccc3F)nc2)cc1OC` [Compound 111], for which the half-inhibitory concentration (IC50) is 1000 to 10000 nM.

In the case of `CC(C)CC(=O)c1ccc(Nc2c(F)cccc2F)nc1` [Compound 119], the IC50 is at most 1000 nM.

The molecule `Cc1cccc(C(=O)c2ccc(N(C(=O)C3CCCCC3)c3c(F)cccc3F)nc2)c1` [Compound 607] gave an IC50 of at most 1000 nM.

For the molecule `Cc1cccc(C(=O)c2ccc(Nc3c(F)cccc3F)nc2)c1` [Compound 104], the IC50 was at most 1000 nM.

As for `COC(=O)CCC(=O)N(c1ccc(C(=O)c2sccc2-n2cccc2)cn1)c1c(F)cccc1F` [Compound 621], the IC50 was in the range of 1000 to 10000 nM.

`O=C(c1ccc(Cl)cc1)c1ccc(Nc2c(F)cccc2F)nc1` [Compound 112] had an IC50 of at most 1000 nM.

In the case of `O=C(c1ccccc1)c1ccc(Nc2c(F)cccc2F)nc1` [Compound 101, (6-(2,6-Difluorophenylamino)-pyridin-3-yl]-phenylmethanone], the IC50 was at most 1000 nM.

As for `O=C(c1ccc(-c2ccccc2)cc1)c1ccc(Nc2c(F)cccc2F)nc1` [Compound 108], the IC50 was at most 1000 nM.

As to `Cc1cccc(C(=O)c2ccc(N(C(=O)c3snnc3C)c3c(F)cccc3F)nc2)c1` [Compound 603], the IC50 fell in the range of 1000 to 10000 nM.

`COc1cc(OC)cc(C(=O)c2ccc(Nc3c(F)cccc3F)nc2)c1` [Compound 115] displayed an IC50 of at most 1000 nM.

On to `O=C(c1ccc(Nc2c(F)cccc2F)nc1)c1ccc2ccccc2c1` [Compound 110], for which the concentration for half-maximal inhibition (IC50) is at most 1000 nM.

On to `O=C(c1ccc(Br)cc1)c1ccc(Nc2c(F)cccc2F)nc1` [Compound 106], for which the IC50 was at most 1000 nM.

Take `CCOC(=O)C(=O)N(c1ccc(C(=O)c2cc(OC)cc(OC)c2)cn1)c1c(F)cccc1F` [Compound 619]: the IC50 is at most 1000 nM.

In turn, `Cc1cc(C(=O)c2ccc(Nc3c(F)cccc3F)nc2)ccc1Cl` [Compound 114] gave an IC50 of at most 1000 nM.

As for `Cc1cccc(C(=O)c2ccc(N(C(=O)c3ccc(Br)cc3)c3c(F)cccc3F)nc2)c1` [Compound 606], the IC50 was at least 10000 nM.

Molecule `Cc1cccc(C(=O)c2ccc(N(C(=O)CC(C)C)c3c(F)cccc3F)nc2)c1` [Compound 614] showed an IC50 of at most 1000 nM.

As for `OC(c1ccccc1)c1ccc(Nc2c(F)cccc2F)nc1` (centres unmarked) [Compound 201], the IC50 is at most 1000 nM.

Molecule `CC(=O)N(c1ccc(C(=O)c2cccc(C)c2)cn1)c1c(F)cccc1F` [Compound 605] came in with an IC50 of at most 1000 nM.

`Cc1cccc(C(=O)c2ccc(N(C(=O)c3sc4ccccc4c3Cl)c3c(F)cccc3F)nc2)c1` [Compound 609] gave a 50% inhibitory concentration (IC50) of 1000 to 10000 nM.

`Cc1cc(C(=O)c2ccc(N(C(=O)c3ccc(Br)cc3)c3c(F)cccc3F)nc2)ccc1Cl` [Compound 615] returned an IC50 of at least 10000 nM.

In the case of `O=S(=O)(c1ccccc1)c1ccc(Nc2c(F)cccc2F)nc1` [Compound 502], the IC50 is at least 10000 nM.

In the case of `Cc1cc(C(=O)c2ccc(N(C(=O)C(C)Oc3ccccc3)c3c(F)cccc3F)nc2)ccc1Cl` (centres unmarked) [Compound 617], the IC50 lay within 1000 to 10000 nM.

The molecule `O=C(c1ccc(Nc2c(F)cccc2F)nc1)c1cc(Cl)ccc1Cl` [Compound 113] showed an IC50 of at most 1000 nM.

The molecule `O=C(c1ccc(Nc2c(F)cccc2F)nc1)c1ccccc1Cl` [Compound 107] yielded an IC50 of at most 1000 nM.

`COc1cc(C(=O)c2ccc(Nc3c(F)cccc3F)nc2)cc(OC)c1OC` [Compound 118]: the IC50 was 1000 to 10000 nM.

Turning to `CC(C)(C)c1ccc(C(=O)c2ccc(Nc3c(F)cccc3F)nc2)cc1` [Compound 105], the IC50 was at most 1000 nM.

Take `CC(Oc1ccccc1)C(=O)N(c1ccc(C(=O)c2sccc2-n2cccc2)cn1)c1c(F)cccc1F` (centres unmarked) [Compound 624]: the IC50 is at most 1000 nM.

As for `Cc1cccc(C(=O)c2ccc(N(C(=O)C(C)Oc3ccccc3)c3c(F)cccc3F)nc2)c1` (centres unmarked) [Compound 612], the IC50 is at least 10000 nM.

Consider `CCCCc1ccc(Nc2c(F)cccc2F)nc1` [Compound 401], for which the IC50 is at least 10000 nM.

As for `Cc1cccc(C(=O)c2ccc(N(C(=O)C(C)(C)C)c3c(F)cccc3F)nc2)c1` [Compound 604], the IC50 is at most 1000 nM.

`Cc1cccc(C(=O)c2ccc(N(C(=O)c3ccccc3)c3c(F)cccc3F)nc2)c1` [Compound 601] returned an IC50 of 1000 to 10000 nM.

Molecule `COCC(=O)N(c1ccc(C(=O)c2cccc(C)c2)cn1)c1c(F)cccc1F` [Compound 602] came in with an IC50 of 1000 to 10000 nM.

`CCOC(=O)C(=O)N(c1ccc(C(=O)c2cccc(C)c2)cn1)c1c(F)cccc1F` [Compound 613]: the IC50 was at most 1000 nM.

`COC(=O)CCC(=O)N(c1ccc(C(=O)c2cccc(C)c2)cn1)c1c(F)cccc1F` [Compound 608] registered an IC50 of 1000 to 10000 nM.

For the molecule `O=C(c1ccc(Nc2c(F)cccc2F)nc1)c1cc2ccccc2s1` [Compound 120], the IC50 lay in the range of 1000 to 10000 nM.

For the molecule `N#Cc1ccc(C(=O)c2ccc(Nc3c(F)cccc3F)nc2)cc1` [Compound 103], the IC50 lay within 1000 to 10000 nM.

For `O=C(c1ccc(N(C(=O)c2cccc(C(F)(F)F)c2)c2c(F)cccc2F)nc1)c1sccc1-n1cccc1` [Compound 623], the IC50 was at most 1000 nM.

The molecule `O=C(c1ccc(Nc2c(F)cccc2F)nc1)c1ccc(Cl)c(Cl)c1` [Compound 109] yielded a half-maximal inhibitory concentration (IC50) of at least 10000 nM.

The molecule `NC(=O)C(c1cc(C(F)(F)F)cc(C(F)(F)F)c1)c1ccc(SCc2ccco2)nn1` (centres unmarked) [Compound 301] gave an IC50 of 1000 to 10000 nM.

Consider `O=C(c1ccc(N(C(=O)c2ccc(Br)cc2)c2c(F)cccc2F)nc1)c1sccc1-n1cccc1` [Compound 620], for which the half-maximal inhibitory concentration (IC50) is at most 1000 nM.

In turn, `CCOC(=O)C(=O)N(c1ccc(C(=O)c2ccc(Cl)c(C)c2)cn1)c1c(F)cccc1F` [Compound 618] displayed an IC50 of 1000 to 10000 nM.

The molecule `O=C(c1ccc(N(C(=O)c2sc3ccccc3c2Cl)c2c(F)cccc2F)nc1)c1sccc1-n1cccc1` [Compound 622] returned an IC50 of at most 1000 nM.

`O=C(c1ccc(Nc2c(F)cccc2F)nc1)c1cccc(Cl)c1` [Compound 102]: the IC50 is at most 1000 nM.

`NC(=O)N(c1ccc(C#CCOc2c(Cl)cccc2Cl)cn1)c1c(F)cccc1F` [Compound 402] came in with an IC50 of at least 10000 nM.

In the case of `Cc1occc1C(=O)c1ccc(Nc2c(F)cccc2F)nc1` [Compound 117], the IC50 was at most 1000 nM.

`O=C(c1ccc(Nc2c(F)cccc2F)nc1)c1sccc1-n1cccc1` [Compound 116]: the IC50 is at most 1000 nM.

As for `Cc1cccc(C(=O)c2ccc(N(C(=O)c3ccc(F)c(C(F)(F)F)c3)c3c(F)cccc3F)nc2)c1` [Compound 610], the IC50 is at most 1000 nM.

Turning to `COC(=O)CCC(=O)N(c1ccc(C(=O)c2ccc(Cl)c(C)c2)cn1)c1c(F)cccc1F` [Compound 616], the IC50 was at least 10000 nM.

For the molecule `Fc1cccc(F)c1Nc1ccc(Sc2ccccc2)cn1` [Compound 503], the IC50 is at most 1000 nM.

Take `Cc1cccc(C(=O)c2ccc(N(C(=O)c3cccc(C(F)(F)F)c3)c3c(F)cccc3F)nc2)c1` [Compound 611]: the half-maximal inhibitory concentration (IC50) was at most 1000 nM.

With `[O-][S+](c1ccccc1)c1ccc(Nc2c(F)cccc2F)nc1` (centres unmarked) [Compound 501], the IC50 was at least 10000 nM.

Another assay concerns the target T1, activated p38. The experiment in a line: p38 inhibition assay: inhibition of ATPase activity. The format is biochemical. Particulars: ATPase activity of activated p38 (60 nM), various ATP concentrations. The procedure:
B. Inhibition of ATPase Activity
This assay is carried out in the presence of 10 mM MgCl2, 25 mM β-glycerophosphate, 10% glycerol and 100 mM HEPES buffer at pH 7.6. For a typical Ki determination, the Km for ATP in the ATPase activity of activated p38 reaction is determined in the absence of inhibitor and in the presence of two concentrations of inhibitor. A stock solution is prepared containing all of the above components and activated p38 (60 nM). The stock solution is aliquotted into vials. A fixed volume of DMSO or inhibitor in DMSO (final concentration of DMSO in reaction was 2.5%) is introduced to each vial, mixed and incubated for 15 minutes at room temperature. The reaction is initiated by adding various concentrations of ATP and then incubated at 30° C. After 30 minutes, the reactions are quenched with 50 μl of EDTA (0.1 M, final concentration), pH 8.0. The product of p38 ATPase activity, ADP, is quantified by HPLC analysis.
Separation of ADP from ATP is achieved on a reversed phase column (Supelcosil, LC-18, 3 μm, part no. 5-8985) using a binary solvent gradient of following composition: Solvent A—0.1 M phosphate buffer containing 8 mM tetrabutylammonium hydrogen sulfate (Sigma Chemical Co., catalogue no. T-7158), Solvent B—Solvent A with 30% methanol.
Ki is determined from the rate data as a function of inhibitor and ATP concentrations.
Turning to `O=C(c1ccccc1)c1ccc(N(C(=O)Cc2ccc(F)cc2)c2c(F)cccc2F)nc1` [Compound 626], the Ki is 1000 to 10000 nM.

As for `O=C(c1ccc(N(C(=O)CCc2ccccc2)c2c(F)cccc2F)nc1)c1ccccc1Cl` [Compound 629], the Ki was in the range of 1000 to 10000 nM.

`O=C(c1ccc(N(C(=O)Oc2ccc(F)cc2)c2c(F)cccc2F)nc1)c1ccccc1Cl` [Compound 632] displayed a Ki of 1000 to 10000 nM.

Consider `O=C(c1ccc(N(C(=O)OCc2ccccc2)c2c(F)cccc2F)nc1)c1sccc1-n1cccc1` [Compound 635], for which the Ki fell in the range of 1000 to 10000 nM.

The molecule `O=C(c1ccc(N(C(=O)CCc2ccccc2)c2c(F)cccc2F)nc1)c1sccc1-n1cccc1` [Compound 633] had a Ki of 1000 to 10000 nM.

`O=C(c1ccccc1)c1ccc(N(C(=O)Oc2ccc(F)cc2)c2c(F)cccc2F)nc1` [Compound 628] returned a Ki of 1000 to 10000 nM.

In turn, `O=C(c1ccccc1)c1ccc(N(C(=O)OCc2ccccc2)c2c(F)cccc2F)nc1` [Compound 627] showed an inhibitory constant (Ki) of 1000 to 10000 nM.

Regarding `O=C(c1ccc(N(C(=O)Cc2ccc(F)cc2)c2c(F)cccc2F)nc1)c1ccccc1Cl` [Compound 630], the Ki was in the range of 1000 to 10000 nM.
